In ChEMBL document CHEMBL1123935 (J Med Chem, 1987) one finds Ki data, which are given here for two molecules.

This experiment addresses D(2) dopamine receptor (Rattus norvegicus, UniProt P61169). Put plainly: Compound was tested for inhibitory activity against the binding of [3H]spiperone to Dopamine receptor D2 in rat striatal membranes. The format is cell membranes, Membrane.

Molecules are shown by their SMILES.

Chain of D(2) dopamine receptor (P61169 whole entry): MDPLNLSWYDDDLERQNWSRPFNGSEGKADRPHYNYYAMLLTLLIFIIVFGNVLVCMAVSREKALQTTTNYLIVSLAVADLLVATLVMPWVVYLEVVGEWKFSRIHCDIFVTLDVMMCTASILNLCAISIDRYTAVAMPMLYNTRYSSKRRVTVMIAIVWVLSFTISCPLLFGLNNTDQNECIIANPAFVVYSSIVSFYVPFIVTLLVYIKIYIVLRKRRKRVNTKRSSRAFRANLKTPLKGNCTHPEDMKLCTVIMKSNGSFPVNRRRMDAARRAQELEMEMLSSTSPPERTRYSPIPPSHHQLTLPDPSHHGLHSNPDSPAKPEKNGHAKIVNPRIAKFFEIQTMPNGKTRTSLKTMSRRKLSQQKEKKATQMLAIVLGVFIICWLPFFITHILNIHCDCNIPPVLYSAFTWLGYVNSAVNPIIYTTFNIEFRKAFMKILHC

As to `C[N+](C)(C)CCCN1c2ccccc2Sc2ccc(Cl)cc21`, the Ki was 2150 nM.

In turn, `C[S+](C)CCCN1c2ccccc2Sc2ccc(Cl)cc21` gave a Ki of 280 nM.

One may read the Ki as a dissociation constant, usually derived from enzyme kinetics or from competition with a known ligand. A higher Ki goes with a looser hold on the target.
